Experiments:
HbA1c = HbA1c level calculated from average blood sugar level; type: in vivo; settings: HbA1C 7% = 1.5 g/L average blood sugar, 1% HbA1C = 0.30 g/litre
Excerpt: Its consumption is therefore intended for healthy subjects and also for type 2 diabetics. […] For the new natural white granulated or powdered slow sugar of this invention the following result is obtained: [formula] For traditional white commercial sugar and for comparison purposes we obtain the following result: [formula]

[1] = system: blood sugar (glucose levels in the blood); experiment: Glycemic index by oral induced hyperglycemia protocol (HGPVO / OGTT); type: in vivo; settings: analyses repeated on two subjects, traditional commercial white sugar as control (FIG. 9)

In the case of `OC[C@H]1O[C@@](CO)(O[C@H]2O[C@H](CO)[C@@H](O)[C@H](O)[C@H]2O)[C@@H](O)[C@@H]1O` [commercial white natural sugar, sucrose], the “increases HbA1c level by” value (HbA1c) is reported as 9.2% and the “glycemic index, in words” value [1] is reported as “very high”.
